{"source": "patent US20240310266A1", "about": "“BIOMARKERS FOR CANCER AND METHODS OF USE THEREOF” (Novartis AG, priority 2021, published 2024)", "origin": "cited, not measured here", "settings": "rats"}
{"smiles": "CC(C)(C)c1nc(-c2cccc(NS(=O)(=O)c3c(F)cccc3F)c2F)c(-c2ccnc(N)n2)s1", "note": "[dabrafenib, N-{3-[5-(2-aminopyrimidin-4-yl)-2-tert-butyl-1,3-thiazol-4-yl]-2-fluorophenyl}-2,6-difluorobenzenesulfonamide]", "values": [{"measurement": "proliferative skin lesions", "value": "proliferative skin lesions observed"}]}
